Measurements published in ChEMBL document CHEMBL1201862, “PubChem BioAssay data set” (2004).
Active and inactive are the calls of the source.

Key:
[1] = molecular target: Melanin-concentrating hormone receptor 1 (Homo sapiens, UniProt Q99705); test: Late-stage fluorescence-based counterscreen for antagonists of the G-protein coupled receptor 7 (GPR7): cell-based dose response assay to identify antagonists of the melanin-concentrating hormone receptor 1 (MCHR1) Set 5.; format: functional
[2] = molecular target: T1, Neuropeptides B/W receptor type 1 (Homo sapiens, UniProt P48145); test: GPR7 antagonist potency, late-stage follow-up, cell-based, fluorescence, dose response, set 5 (AID 588566); format: functional
T1 sequence (P48145 whole entry): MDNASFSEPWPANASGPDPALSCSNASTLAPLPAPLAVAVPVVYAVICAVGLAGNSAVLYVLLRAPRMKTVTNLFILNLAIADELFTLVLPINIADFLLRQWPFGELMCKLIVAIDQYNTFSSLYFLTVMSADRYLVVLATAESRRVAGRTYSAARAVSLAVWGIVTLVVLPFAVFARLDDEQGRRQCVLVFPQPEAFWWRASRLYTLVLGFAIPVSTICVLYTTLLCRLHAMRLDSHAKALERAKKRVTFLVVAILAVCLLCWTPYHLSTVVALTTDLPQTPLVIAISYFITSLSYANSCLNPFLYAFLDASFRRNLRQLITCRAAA

[3] = molecular target: T2, Sentrin-specific protease 6 (Homo sapiens, UniProt Q9GZR1); test: SAR Analysis of small molecule inhibitors of Sentrin-specific protease 6 (SENP6) using a Luminescent assay. [Related pubchem assays (depositor defined):AID2582, AID2599]; format: functional
T2 sequence (Q9GZR1 whole entry): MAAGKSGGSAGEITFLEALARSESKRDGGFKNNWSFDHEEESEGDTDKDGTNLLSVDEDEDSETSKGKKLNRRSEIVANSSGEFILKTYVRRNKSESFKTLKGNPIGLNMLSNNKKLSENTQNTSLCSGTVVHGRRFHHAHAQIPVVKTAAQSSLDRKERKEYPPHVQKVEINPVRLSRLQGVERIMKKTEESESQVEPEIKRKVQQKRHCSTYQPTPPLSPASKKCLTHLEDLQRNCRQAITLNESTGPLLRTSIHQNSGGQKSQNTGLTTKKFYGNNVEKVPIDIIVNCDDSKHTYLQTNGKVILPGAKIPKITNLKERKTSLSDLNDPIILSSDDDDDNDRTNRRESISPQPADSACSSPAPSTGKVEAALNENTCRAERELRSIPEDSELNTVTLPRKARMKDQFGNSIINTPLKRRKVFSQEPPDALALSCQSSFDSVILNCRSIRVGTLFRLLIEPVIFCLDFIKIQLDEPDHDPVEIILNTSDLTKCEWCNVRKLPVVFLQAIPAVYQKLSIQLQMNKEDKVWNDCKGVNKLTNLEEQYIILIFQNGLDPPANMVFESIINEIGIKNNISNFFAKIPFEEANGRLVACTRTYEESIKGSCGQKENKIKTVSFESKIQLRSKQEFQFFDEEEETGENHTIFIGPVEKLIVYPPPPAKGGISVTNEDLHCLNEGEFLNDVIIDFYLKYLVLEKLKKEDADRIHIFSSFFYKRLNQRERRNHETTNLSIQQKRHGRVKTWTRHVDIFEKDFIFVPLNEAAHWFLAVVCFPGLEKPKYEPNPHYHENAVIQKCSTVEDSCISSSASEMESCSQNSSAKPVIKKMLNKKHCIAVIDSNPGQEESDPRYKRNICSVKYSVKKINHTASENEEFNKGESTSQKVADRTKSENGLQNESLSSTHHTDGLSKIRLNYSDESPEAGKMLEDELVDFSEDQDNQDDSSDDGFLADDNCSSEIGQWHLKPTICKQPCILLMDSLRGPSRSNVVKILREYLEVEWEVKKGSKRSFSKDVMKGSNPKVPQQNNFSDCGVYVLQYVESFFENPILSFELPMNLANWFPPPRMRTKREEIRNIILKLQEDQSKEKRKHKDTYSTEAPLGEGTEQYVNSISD

[4] = molecular target: T3, Sentrin-specific protease 7 (Homo sapiens, UniProt Q9BQF6); test: SENP7 protease inhibitors, SAR follow-up, biochemical, luminescence (AID 504497); format: functional
T3 sequence (Q9BQF6 whole entry): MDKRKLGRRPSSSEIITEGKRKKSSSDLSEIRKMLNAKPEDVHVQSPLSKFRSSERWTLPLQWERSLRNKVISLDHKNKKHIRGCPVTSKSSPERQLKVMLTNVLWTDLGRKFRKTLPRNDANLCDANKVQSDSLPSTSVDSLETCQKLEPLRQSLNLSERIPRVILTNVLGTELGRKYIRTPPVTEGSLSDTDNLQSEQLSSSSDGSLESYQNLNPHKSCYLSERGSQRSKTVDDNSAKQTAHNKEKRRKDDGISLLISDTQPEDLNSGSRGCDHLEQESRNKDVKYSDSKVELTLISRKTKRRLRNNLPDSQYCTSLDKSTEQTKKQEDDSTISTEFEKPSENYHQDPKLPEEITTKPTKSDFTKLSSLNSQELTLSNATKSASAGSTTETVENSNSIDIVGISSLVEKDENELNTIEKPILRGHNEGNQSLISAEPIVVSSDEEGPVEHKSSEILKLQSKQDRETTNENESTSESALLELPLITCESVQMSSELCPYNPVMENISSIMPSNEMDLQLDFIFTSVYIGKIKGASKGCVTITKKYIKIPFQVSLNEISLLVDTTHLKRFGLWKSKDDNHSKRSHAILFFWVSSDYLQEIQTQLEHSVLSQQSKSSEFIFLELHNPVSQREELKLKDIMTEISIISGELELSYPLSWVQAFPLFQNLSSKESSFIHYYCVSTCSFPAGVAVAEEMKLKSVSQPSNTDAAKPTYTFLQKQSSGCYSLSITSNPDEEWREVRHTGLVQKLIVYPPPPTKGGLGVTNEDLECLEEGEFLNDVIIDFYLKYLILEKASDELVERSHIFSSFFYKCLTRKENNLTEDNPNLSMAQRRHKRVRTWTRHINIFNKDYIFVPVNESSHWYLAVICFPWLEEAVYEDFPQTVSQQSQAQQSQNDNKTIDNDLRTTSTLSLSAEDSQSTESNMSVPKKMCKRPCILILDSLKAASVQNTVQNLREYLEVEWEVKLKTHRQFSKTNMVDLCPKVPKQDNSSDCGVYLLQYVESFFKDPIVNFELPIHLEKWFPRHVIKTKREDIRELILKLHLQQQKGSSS

[5] = molecular target: T4, Sentrin-specific protease 8 (Homo sapiens, UniProt Q96LD8); test: SENP8 protease inhibitors, SAR follow-up, biochemical, luminescence, set 2 (AID 588601); format: functional
T4 sequence (Q96LD8 whole entry): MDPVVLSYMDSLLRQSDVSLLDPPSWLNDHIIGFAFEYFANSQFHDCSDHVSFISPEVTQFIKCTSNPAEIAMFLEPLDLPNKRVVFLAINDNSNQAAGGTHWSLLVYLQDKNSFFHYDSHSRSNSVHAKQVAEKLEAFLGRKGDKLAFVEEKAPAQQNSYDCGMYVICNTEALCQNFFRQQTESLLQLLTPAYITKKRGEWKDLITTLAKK

[6] = molecular target: T4, Sentrin-specific protease 8; test: SENP8 protease inhibitors, SAR follow-up, biochemical, luminescence (AID 504501); format: functional
Caspase-3 = molecular target: T5, Caspase-3 (Homo sapiens, UniProt P42574); test: SAR Analysis of small molecule inhibitors of Sentrin-specific proteases (SENPs) using a Caspase-3 Selectivity assay. [Related pubchem assays (depositor defined):AID2540, AID2599, AID434973, AID489001]; format: functional
T5 sequence (P42574 whole entry): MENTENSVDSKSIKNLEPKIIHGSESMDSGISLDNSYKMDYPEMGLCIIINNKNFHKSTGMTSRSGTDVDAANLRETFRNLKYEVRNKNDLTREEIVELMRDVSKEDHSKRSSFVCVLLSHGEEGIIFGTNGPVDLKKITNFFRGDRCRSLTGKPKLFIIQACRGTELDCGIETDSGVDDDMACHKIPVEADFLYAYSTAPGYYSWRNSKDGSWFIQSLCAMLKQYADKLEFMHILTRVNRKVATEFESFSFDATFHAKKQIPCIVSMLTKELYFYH

[7] = molecular target: T2, Sentrin-specific protease 6; test: SENP6 protease inhibitors, SAR follow-up, biochemical, luminescence, set 2 (AID 588598); format: functional
[8] = molecular target: T3, Sentrin-specific protease 7; test: SENP7 protease inhibitors, SAR follow-up, biochemical, luminescence, set 2 (AID 588600); format: functional
BJ [9] = test: cells; format: functional, cell-based; conditions: Homo sapiens, read-out: EC50
BJ [10] = test: cytotoxicity toward BJ-TERT fibroblasts, dose response, cell-based, RAS-independent, luminescence (AID 1933); format: functional; conditions: Homo sapiens
BJ [11] = test: cytotoxicity toward Ras-transformed BJeLR fibroblasts, dose response, cell-based, alamar blue fluorescence, cherrypicked samples (AID 2631); format: functional; conditions: Homo sapiens;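 note: confirmatory dose-response assay in RAS-dependent BJ fibroblasts engineered with TERT, LT and ST, with cytotoxicity read by fluorescence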
[12] = cytotoxicity toward DRD oncogenic fibroblasts, dose response, cell-based, non-viral oncogenic, luminescence (AID 1934); format: functional; conditions: Homo sapiens
BJ [13] = test: cytotoxicity toward BJ-TERT-LT-ST fibroblasts, dose response, cell-based, RAS-independent, luminescence (AID 1935); format: functional; conditions: Homo sapiens;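 note: BJ fibroblasts immortalized with TERT plus LT and ST oncogenes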

Melanin-concentrating hormone receptor 1, sequence (Q99705 whole entry): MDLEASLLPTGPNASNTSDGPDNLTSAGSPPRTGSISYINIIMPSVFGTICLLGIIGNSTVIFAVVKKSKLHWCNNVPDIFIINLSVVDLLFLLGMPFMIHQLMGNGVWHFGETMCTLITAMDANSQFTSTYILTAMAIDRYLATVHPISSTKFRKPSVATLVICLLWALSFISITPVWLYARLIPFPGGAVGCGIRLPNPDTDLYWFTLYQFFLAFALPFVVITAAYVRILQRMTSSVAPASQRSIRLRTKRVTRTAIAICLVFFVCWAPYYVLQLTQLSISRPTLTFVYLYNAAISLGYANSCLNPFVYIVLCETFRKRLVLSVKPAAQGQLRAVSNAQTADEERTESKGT

For `CSc1ccc(Oc2cnn(Cc3cccc4ccccc34)c(=O)c2Cl)cc1`, the IC50 [1] was 9.04 µM (active) and the IC50 [2] was 4.59 µM (active).

With `Fc1ccc(/C=C/c2noc(-c3ccccc3I)n2)cc1` the IC50 [3] was 20 µM (active), the IC50 [4] was 6.4 µM (active) and the IC50 [5] was 7.41 µM (active). The IC50 [6] was 23 µM (active), the IC50 (Caspase-3) was 24 µM (active) and the IC50 [7] was 7.33 µM (active). The IC50 [8] was 7.78 µM (active).

With `O=C(C1CCCCN1Cc1cccc2ccccc12)N1CCN(c2ccc([N+](=O)[O-])cc2)CC1` (stereo unspecified) the IC50 [1] was > 20 µM (inactive) and the IC50 [2] was > 20 µM (inactive).

With `Cc1ccc(/C=C2\SC(=S)N(CC3CCCO3)C2=O)o1` (stereo unspecified) the EC50 (BJ [9]) was > 150 µM (not active), the EC50 (BJ [10]) was 35.8 µM (inconclusive) and the EC50 (BJ [11]) was > 133 µM (inactive). For the same molecule, the EC50 [12] was 16.4 µM (active) and the EC50 (BJ [13]) was > 150 µM (not active).
